Measured values reported in EP0417631A2, “Condensed diazepinones, process for their preparation, and medicaments containing these compounds” (Dr. Karl Thomae GmbH, priority 1989, dated 1991).

Tested on: M-Rezeptoren der Bronchien, des Herzens und der Harnblase
Test: Effect on M receptors of bronchi, heart and urinary bladder of anaesthetised guinea pigs (acetylcholine-induced bronchoconstriction, bradycardia, bladder tension)
Format: in vivo, Meerschweinchen
From the text: 1. Wirkung auf M-Rezeptoren der Bronchien, des Herzens und der Harnblase anaesthetisierter Meerschweinchen
Meerschweinchen beiderlei Geschlechts (550-600 g Körpergewicht) wurden mit Urethan (1,4 gikg, i.p.) anaesthetisiert. Eine Kanüle wurde zur Injektion der Wirkstoffe in die Jugularvene eingeführt. 220 1.U."kg Heparin wurden intravenös injiziert. Es wurde eine Kanüle in die Trachea eingeführt; die Tiere wurden künstlich mit sauerstoffangereicherter Luft mittels einer positiven Druckpumpe (Braun-Melsungen) bei einer Rate von 80 Schlägen pro Minute beatmet. Ein Ast der Trachealkanüle wurde mit einem Wassermanometer von 10 cm Höhe verbunden. Das Beatmungsvolumen wurde so eingestellt, daß der maximale intratracheale Druck während der Beatmung gerade den Druck einer 10 cm-Wassersäule erreichte.
Die Werte wurden mit einem IFD Aufnahmegerät registriert. Vor dem Versuch wurde die Trachea für eine kurze Zeit abgeklemmt, um den maximal möglichen Grad der Bronchokonstriktion zur Kalibrierung zu erzeugen. […] Die Herzfrequenz wurde mit einem Frequenzmesser, der durch arterielle Pulswellen ausgelöst wird, gemessen.
Es wurde ein kleiner medianer Bauchschnitt gesetzt und die Harnblase an einem Kraft-Transducer unter einer Ruhespannung von 1 Gramm angebunden.
Die zu testenden Wirksubstanzen wurden über die Jugularvene injiziert, 5 Minuten später wurde die Spannungszunahme der Blase (in Gramm), der Bronchialwiderstand (in %) und die Abnahme der Herzfrequenz (Schläge pro Minute) nach Gabe von Acetylcholin (50 ug/kg i.v. und i.a.) gemessen. Es wurden dosis-abhängige Kurven durch Wiedergabe der prozentualen Hemmung der Bronchokonstriktion, Bradycardie und der Spannungszunahme der Blase gegen den Logarithmus der Dosis (mol/kg) der zu untersuchenden Wirkstoffe aufgezeichnet. Die Ergebnisse werden angegeben als Mittel- werte (n=4-6). Ergebnisse siehe Tabelle I.

[1] = qualitative statement on reference substances, summing up the tests of Tabelle I-III

| SMILES | Selektivität (glatte Muskulatur gegenüber Herzfrequenz oder Speichelsekretion) (in vivo) | Selektivität (glatte Muskulatur gegenüber Herzfrequenz oder Speichelsekretion) [1] |
| --- | --- | --- |
| CN1C2CCC1CC(OC(=O)C(CO)c1ccccc1)C2 (racemic) [Z, Atropin] | keine Selektivität |  |
| CCN(CC)CC1CCCCN1CC(=O)N1c2ccccc2C(=O)Nc2cccnc21 (stereo not drawn) [X, 11-[[2-[(Diethylamino)methyl]-1-piperidinyl]acetyl]-5,11-dihydro-6H-pyrido[2,3-b][1,4]benzodiazepin-6-on] |  | höhere Wirksamkeit auf kardiale Muskarinrezeptoren |
| CN1CCN(CC(=O)N2c3ccccc3C(=O)Nc3cccnc32)CC1 [Y, 5,11-Dihydro-11-[(4-methyl-1-piperazinyl)acetyl]-6H-pyrido[2,3-b][1,4]benzodiazepin-6-on] |  | keine Selektivität |
